The results in this text go back to patent US11021481B2, “Substituted isoindolin-1-ones and 2,3-dihydro-1h-pyrrolo[3,4-c]pyridin-1-ones as HPK1 antagonists” (Nimbus Saturn, Inc., priority 2019, dated 2021).

The target in the test is HPK1 (Homo sapiens (Human), UniProt Q92918). Briefly: HPK1 biochemical enzyme assay (microfluidic mobility shift assay). Particulars: 1.5 nM HPK1, ATP 1 mM final, 30 min preincubation, 60 min at RT, Caliper EZ Reader; read-out: HPK1 1000UMATP caliper IC50. A digest of the protocol: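 Ten-point compound titrations (top 3 μM final) preincubated 30 min with HPK1 and substrate, then reaction started with 1 mM ATP and 1 μM substrate, 5 mM MgCl2. After 60 min at RT, reaction terminated and product measured by microfluidic mobility shift.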
HPK1, sequence (Q92918 whole entry): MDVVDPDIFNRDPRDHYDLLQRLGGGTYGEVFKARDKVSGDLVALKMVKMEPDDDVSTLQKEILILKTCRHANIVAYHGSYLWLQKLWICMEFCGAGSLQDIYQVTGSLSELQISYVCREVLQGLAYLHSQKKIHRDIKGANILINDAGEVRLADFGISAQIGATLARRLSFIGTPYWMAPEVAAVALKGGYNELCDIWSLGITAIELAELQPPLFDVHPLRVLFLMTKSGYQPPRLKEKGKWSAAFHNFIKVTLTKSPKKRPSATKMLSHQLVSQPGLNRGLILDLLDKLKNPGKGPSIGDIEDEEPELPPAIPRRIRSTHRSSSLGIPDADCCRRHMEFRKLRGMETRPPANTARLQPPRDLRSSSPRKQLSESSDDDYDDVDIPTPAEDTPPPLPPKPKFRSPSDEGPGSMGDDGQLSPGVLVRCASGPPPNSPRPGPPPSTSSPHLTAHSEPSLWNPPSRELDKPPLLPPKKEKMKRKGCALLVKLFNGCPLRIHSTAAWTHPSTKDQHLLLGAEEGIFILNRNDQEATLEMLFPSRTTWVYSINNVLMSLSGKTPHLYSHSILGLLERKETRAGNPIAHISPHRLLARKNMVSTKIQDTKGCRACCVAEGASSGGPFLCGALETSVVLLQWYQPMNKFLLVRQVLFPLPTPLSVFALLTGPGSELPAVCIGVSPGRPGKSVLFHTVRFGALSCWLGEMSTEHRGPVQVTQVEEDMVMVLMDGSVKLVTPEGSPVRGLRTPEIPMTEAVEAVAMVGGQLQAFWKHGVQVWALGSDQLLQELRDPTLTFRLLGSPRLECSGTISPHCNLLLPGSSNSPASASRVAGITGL
By IC50 is commonly meant the concentration at which inhibition is half-maximal. Consider `CN1CCN(c2ccc(Nc3ccc(-c4ccnc5ccn(C)c45)c4c3C(=O)NC4)nc2)CC1` [I-66, 7-[[5-(4-methylpiperazin-1-yl)-2-pyridyl]amino]-4-(1-methylpyrrolo [3,2-b]pyridin-7-yl)isoindolin-1-one], for which the IC50 was in the range of 100 to 1000 nM.
The same measure for `Cc1ccn2c(-c3ccc(Nc4ccc(N5CCC(O)(CN6CCOCC6)CC5)cn4)c4c3CNC4=O)cnc2c1F` [I-439, 4-(8-fluoro-7-methylimidazo [1,2-a]pyridin-3-yl)-7-((5-(4-hydroxy-4-(morpholinomethyl)piperidin-1-yl)pyridin-2-yl)amino)isoin-dolin-1-one]: < 100 nM; for `Cc1ccn2c(-c3ncc(Nc4ccc(N5CCN(C)CC5)cn4)c4c3CNC4=O)cnc2c1` [I-73, 4-(7-methylimidazo [1,2-a]pyridin-3-yl)-7-[[5-(4-methylpiperazin-1-yl)-2-pyridyl]-amino]-2,3-dihydropyrrolo [3,4-c]pyridin-1-]: < 100 nM.
For the compound `Cn1ccc2c(-c3ccc(Nc4ccc(N5CCC(O)CC5)cn4)c4c3CNC4=O)cnc-2c1` [I-362, 7-((5-(4-hydroxy-piperidin-1-yl)pyridin-2-yl)amino)-4-(6-methyl-6H-pyrrolo[2,3-c]pyridin-3-yl)isoindolin-1-one], the IC50 was < 100 nM.
The same measure for `CN1CCN(c2ccc(Nc3ccc(-c4nnc5ccccn45)c4c3C(=O)NC4)nc2)CC1` [I-85, 7-[[5-(4-methylpiperazin-1-yl)-2-pyridyl]amino]-4-([1,2,4]triazolo [4,3-a]pyridin-3-yl)isoindolin-1-one]: < 100 nM.
The same measure for `COC[C@@H]1CN(c2ccc(Nc3ccc(-c4cnc5cc(F)ccn45)c4c3C(=O)NC4)nc2)CCO1` [I-442, (S)-4-(7-fluoroimidazo [1,2-a]pyridin-3-yl)-7-((5-(2-(methoxymeth-yl)morpholino)pyridin-2-yl)amino)isoin-dolin-1-one]: < 100 nM; for `Cn1ccc2c(-c3ccc(Nc4ccc(N5CCC6(CC5)COC6)cn4)c4c3CNC4=O)ccnc21` [I-299]: < 100 nM; for `CC(C)(O)[C@@H]1CCCN(c2ccc(Nc3ccc(-c4cnc5cc(F)ccn45)c4c3C(=O)NC4)nc2)C1` [I-202]: < 100 nM.
The same measure for `CC(C)NCc1nc(Nc2ccc(-c3cnc4cc(F)ccn34)c3c2C(=O)NC3)ccc1[C@@H]1CCOC1` [I-558]: < 100 nM.
Regarding `O=C1NCc2c(-c3cnc4cc(F)ccn34)ccc(Nc3ccc([C@H]4CCOC4)c(CN4CC[C@H](O)C4)n3)c21` [I-778, 4-(7-fluoroimidazo[1,2-a]pyridin-3-yl)-7-((6-(((S)-3-hydroxypyrrolidin-1-yl)methyl)-5-((R)-tetrahydrofuran-3-yl)pyridin-2-yl)amino)isoindolin-1-one], the IC50 was < 100 nM.
The same measure for `CCNC(=O)C(C)(C)c1ccc(Nc2ccc(-c3ccnc4c3ccn4C)c3c2C(=O)NC3)nc1` [I-146, N-ethyl-2-methyl-2-[6-[[7-(1-methylpyrrolo [2,3-b]pyridin-4-yl)-3-oxo-isoindolin-4-yl]amino]-3-pyridyl]propan amide]: < 100 nM.
The same measure for `Cc1ccn2c(-c3ccc(Nc4ccc(N5CCC(O)CC5)cn4)c4c3CNC4=O)cnc2c1C` [I-176, 4-(7,8-dimethylimi-dazo[1,2-a]pyridin-3-yl)-7-[[5-(4-hydroxy-1-piperidyl)-2-pyridyl]amino] isoindolin-1-one]: < 100 nM.
The same measure for `Cn1ccc2c(-c3ccc(Nc4ccc(N5CC[C@@H](O)C5)cn4)c4c3CNC4=O)ccnc21` [I-278, (R)-7-((5-(3-hydroxy-pyrrolidin-1-yl)pyridin-2-yl)amino)-4-(1-methyl-1H-pyrrolo[2,3-b]pyridin-4-yl)isoindolin-1-one]: < 100 nM; for `CN(C)C1CN(c2nc(Nc3ccc(-c4cnc5cc(F)ccn45)c4c3C(=O)NC4)ccc2C2CCOC2)C1` (stereo in doubt) [I-787, (R)-7-((6-(3-(dimethylami-no)azetidin-1-yl)-5-(tetrahydrofuran-3-yl)pyridin-2-yl)amino)-4-(7-fluoroimidazo [1,2-a]pyridin-3-yl)isoindolin-1-one]: < 100 nM.
Regarding `CCN(CC)Cc1nc(Nc2ccc(-c3cnc4cc(F)ccn34)c3c2C(=O)NC3)ccc1N1CCOCC1` [I-785, 7-((6-((diethylamino)-methyl)-5-morpholinopyr-idin-2-yl)amino)-4-(7-fluoroimidazo [1,2-a]pyridin-3-yl)isoindolin-1-one], the IC50 was < 100 nM.
To `CC(C)NCc1nc(Nc2ccc(-c3cnc4cc(F)ccn34)c3c2C(=O)NC3)ccc1[C@H]1CCOC1` [I-559, (R)-4-(7-fluoroimidazo [1,2-a]pyridin-3-yl)-7-((6-((isopropylamino)-methyl)-5-(tetrahydrofuran-3-yl)pyridin-2-yl)amino)isoin-dolin-1-one] belongs < 100 nM; to `CN1CCN(c2ccc(Nc3cnc(-c4c[nH]c5nc(C(F)(F)F)ccc45)c4c3C(=O)NC4)nc2)CC1` [I-253, 7-((5-(4-methylpiperazin-1-yl)pyridin-2-yl)amino]-4-(6-(trifluorometh-yl)-1H-pyrrolo[2,3-b]pyridin-3-yl)-2,3-dihydro-1H-pyrrolo[3,4-c]pyridin-1-one], > 1000 nM; to `CC(C)(O)[C@H]1CN(c2ccc(Nc3ccc(-c4cnc5cc(F)ccn45)c4c3C(=O)NC4)nc2)CCO1` [I-345, (R)-4-(7-fluoroimidazo[1,2-a]pyridin-3-yl)-7-((5-(2-(2-hydroxypropan-2-yl)morpholino)pyridin-2-yl)amino)isoindolin-1-one], < 100 nM.
The same measure for `CN1CCC[C@@H](c2cccc(Nc3cnc(-c4ccnc5c4ccn5C)c4c3C(=O)NC4)n2)C1` [I-420, (R]-4-(1-methyl-1H-pyrrolo[2,3-b]pyridin-4-yl)-7-((6-(1-methylpiperidin-3-yl)pyridin-2-yl)amino)-2.3-dihydro-1H-pyrrolo[3,4-c]pyridin-1-one]: < 100 nM; for `CN(C)Cc1nc(Nc2ccc(-c3cnc4cc(F)ccn34)c3c2C(=O)NC3)ccc1OC1CCOCC1` [I-553, 7-[[6-[(dimethylamino)-methyl]-5-tetrahydropy-ran-4-yloxy-2-pyridyl]amino]-4-(7-fluoroimidazo [1,2-a]pyridin-3-yl)isoindolin-1-one]: < 100 nM; for `O=C1NCc2c(-c3cnn4ccccc34)ccc(Nc3ccc(N4CCNCC4)cn3)c21` [I-90, 7-[(5-piperazin-1-yl-2-pyridyl)amino]-4-pyrazolo[1,5-a]pyridin-3-yl-isoindolin-1-one]: < 100 nM.
The same measure for `CN(C)C(C)(C)C1CCCN(c2ccc(Nc3ccc(-c4cnc5cc(F)ccn45)c4c3C(=O)NC4)nc2)C1` (stereo in doubt) [I-607, (S)-7-((5-(3-(2-(dimethylami-no)propan-2-yl)piperidin-1-yl)pyridin-2-yl)amino)-4-(7-fluoroimidazo [1,2-a]pyridin-3-yl)isoindolin-1-one]: < 100 nM.
Regarding `CN1CCN(c2cccc(Nc3ccc(-c4ccnc5c4ccn5C)c4c3C(=O)NC4)n2)CC1` [I-247, 7-[[6-(4-methylpiperazin-1-yl)-2-pyridyl]amino]-4-(1-methylpyrrolo [2,3-b]pyridin-4-yl)isoindolin-1-one], the IC50 was < 100 nM.
The same measure for `O=C1NCc2c(-c3cnc4cc(F)ccn34)ccc(Nc3ccc(C4CCOC4)c(CO)n3)c21` (stereo not shown) [I-771, 4-(7-fluoroimidazo [1,2-a]pyridin-3-yl)-7-((6-(hydroxymeth-yl]-5-(tetrahydrofuran-3-yl)pyridin-2-yl)amino)isoin-dolin-1-one]: < 100 nM; for `CC(C)(O)[C@@H]1CCCN(c2ccc(Nc3ccc(-c4cnc5cnccn45)c4c3C(=O)NC4)nc2)C1` [I-311, (R)-7-((5-(3-(2-hydroxypropan-2-yl)piperidin-1-yl)pyridin-2-yl)amino)-4-(imidazo[1,2-a]pyrazin-3-yl)isoindolin-1-one]: < 100 nM.
The same measure for `O=C1NCc2c(-c3cnn4c3CCCC4)ncc(Nc3ccc(N4CCOCC4)cn3)c21` [I-367, 7-((5-morpholinopyridin-2-yl)amino)-4-(4,5,6,7-tetrahdropyra-zolo[1,5-a]pyridin-3-yl)-2,3-dihydro-1H-pyrrolo[3,4-c]pyridin-1-one]: < 100 nM; for `CN1CCN(c2cccc(Nc3ccc(-c4cnc5cc(F)ccn45)c4c3C(=O)NC4)n2)CC1` [I-230, 4-(7-fluoroimidazo [1,2-a]pyridin-3-yl)-7-[[6-(4-methylpiperazin-1-yl)-2-pyridyl)amino] isoindolin-1-one]: < 100 nM.
To `O=C1NCc2c(-c3cnc4cnccn34)ccc(Nc3ccc(N4CCC[C@@H](O)CC4)cn3)c21` [I-329, (R)-7-((5-(4-hydroxyaze-pan-1-yl)pyridin-2-yl)amino)-4-(imidazol[1,2-a]pyrazin-3-yl)isoindolin-1-one] belongs < 100 nM; to `Cc1cccc2c(-c3ccc(Nc4ccc([C@@H]5CCOC5)c(CN(C)C)n4)c4c3CNC4=O)cnn12` [I-709, (S)-7-((6-((dimethylamino)-methyl)-5-(tetrahydrofuran-3-yl)pyridin-2-yl)amino)-4-(7-methylpyrazolo[1,5-a]pyridin-3-yl)isoindolin-1-one], < 100 nM.
Regarding `CNCc1nc(Nc2ccc(-c3cnc4cc(F)ccn34)c3c2C(=O)NC3)ccc1C1CCOC1` (stereo in doubt) [I-722, (S)-4-(7-fluoroimidazo [1,2-a]pyridin-3-yl)-7-((6-((methyl-amino)methyl)-5-(tetrahydrofuran-3-yl)pyridin-2-yl)amino)isoin-dolin-1-one], the IC50 is < 100 nM.
To `O=C1NCc2c(-c3cncn4ccnc34)ncc(Nc3ccc(N4CCC(O)CC4)cn3)c21` [I-632, 7-((5-(4-hydroxy-piperidin-1-yl)pyridin-2-yl)amino)-4-(imidazo[1,2-c]pyrimidin-8-yl)-2,3-dihydro-1H-pyrrolo[3,4-c]pyridin-1-one] belongs > 1000 nM.
